From patent US6864217B2, “Herbicidal compositions with substituted phenylsulfonylureas for controlling weeds in rice” (Hoechst Schering AgrEvo GmbH, priority 1998, dated 2005) come the findings set out here.

Type in all cases: in vivo
The subject of data set [1] is Oryza sativa. Description: Table 14 greenhouse trial, treatment at the 3-4 leaf stage: rice damage. Conditions: 21 days after application. The protocol: (§1) Seeds or rhizome pieces of mono- and dicotyledonous weed plants are placed into sandy loam soil in plastic pots, covered with soil and grown in a greenhouse under good growth conditions (temperature, atmospheric humidity, water supply). Weeds which are encountered in the cultivation of rice are cultivated in pots in which the water level is up to 2 cm over the soil surface. Three weeks after sowing, the test plants are treated at the three-leaf stage. The active compound combinations according to the invention, formulated as wettable powders or emulsion concentrates, and, in parallel experiments, the correspondingly formulated individual active compounds are sprayed onto the green parts of the plants at different dosages using an amount of water of 300 to 600 l/ha (converted), and, after about 3 to 4 weeks of the test plants in the greenhouse under optimum growth conditions (temperature, atmospheric humidity, water supply), the effect of the preparations is evaluated visually in comparison to untreated controls. In the case of rice or weeds which are encountered in the cultivation of rice, the active compounds are also added directly to the water for irrigation (application analogous to the so-called granules application) or sprayed onto plants and added to the water for irrigation. The experiments were designed with several, up to five, repetitions. The herbicidal compositions according to the invention also have good herbicidal post-emergence activity against a broad spectrum of economically important weed grasses and broad-leaved weeds.
(§2) Greenhouse trial: Treatment at the 3-4 leaf stage, evaluation 21 days after the application.

In data set [2] the test system is Sagittaria pygmaea. Description: Table 14 greenhouse trial, treatment at the 3-4 leaf stage: weed control. Conditions: 21 days after application. The protocol:
as §1, §2

In data set [3] the test system is Sagittaria pygmaea. Description: Table 13 greenhouse trial, treatment at the 5-6 leaf stage: weed control. The conditions noted are these: 20 days after application. The protocol:
as §1
(§3) Greenhouse trial: Treatment at the 5-6 leaf stage, evaluation 20 days after the application.

Data set [4] deals with Oryza sativa. Briefly: Table 13 greenhouse trial, treatment at the 5-6 leaf stage: rice damage. The conditions noted are these: 20 days after application. The procedure:
as §1, §3

Data set [5] has as its system Oryza sativa. Description: Table 5 field trial, treatment at the 2-4 leaf stage rice: rice damage. Conditions: evaluation after 28 days.
Description: (§8) The examples mentioned below were carried out in the greenhouse, and in some instances, in field trials.
The subject of data set [6] is Echinochloa crusgalli. Description: Table 5 field trial, treatment at the 2-4 leaf stage rice: weed control. Conditions: evaluation after 28 days.
Description: as §8
Data set [7] has as its system Oryza sativa. Briefly: Table 23 field trial, treatment: 4-6 leaf stage: rice damage. The conditions noted are these: 36 days after application. The text has this: (§4) Field trial: Treatment: 4-6 leaf stage, evaluation 36 days after the application.
The test system of data set [8] is Cyperus iria. Briefly: Table 23 field trial, treatment: 4-6 leaf stage: weed control. Conditions: 36 days after application.
Description: as §4

For data set [9], the system named is Echinochloa crusgalli. Briefly: Table 9 greenhouse trial, treatment at the 1-2 leaf stage: weed control. Conditions: 22 days after application. The protocol:
as §1
(§5) Greenhouse trial: Treatment at the 1-2 leaf stage, evaluation 22 days after the application.

Data set [10] concerns Oryza sativa. Briefly: Table 9 greenhouse trial, treatment at the 1-2 leaf stage: rice damage. The conditions noted are these: 22 days after application. The procedure: as §1, §5
For data set [11], the system named is Echinochloa crusgalli. Description: Table 17 field trial, treatment at the 2 leaf stage: weed control. Conditions: 14 days after application. The text has this: Field trial: Treatment at the 2 leaf stage, evaluation 14 days after the application.
In data set [12] the test system is Oryza sativa. Description: Table 10 greenhouse trial, treatment at the 1-2 leaf stage: rice damage. Conditions: greenhouse trial, 20 days after application. The procedure:
as §1
(§6) Greenhouse trial: Treatment at the 1-2 leaf stage, evaluation 20 days after the application.

Data set [13] concerns Scirpus juncoides. Description: Table 10 greenhouse trial, treatment at the 1-2 leaf stage: weed control. The conditions noted are these: 20 days after application. The protocol:
as §1, §6

Data set [14] relates to Oryza sativa. Briefly: Table 15 greenhouse trial, treatment at the 2-3 leaf stage: rice damage. Conditions: 20 days after application. The protocol:
as §1

Data set [15] relates to Scirpus maritimus. Briefly: Table 15 greenhouse trial, treatment at the 2-3 leaf stage: weed control. The conditions noted are these: 20 days after application. The protocol: as §1
Data set [16] concerns Cyperus serotinus. Description: Table 16 greenhouse trial, treatment at the 2-3 leaf stage: weed control. The conditions noted are these: 20 days after application. The protocol: as §1
(§7) Greenhouse trail: Treatment at the 2-3 leaf stage, evaluation 20 days after the application.

The test system of data set [17] is Oryza sativa. Description: Table 16 greenhouse trial, treatment at the 2-3 leaf stage: rice damage. Conditions: 20 days after application. The protocol:
as §1, §7

Data set [18] relates to Cucumis dipsaceus. Briefly: Table 1: weed control by A1*), safener C3-1) and combination.
Description: as §8
In data set [19] the test system is Oryza sativa (paddy rice). Description: Table 1: damage to paddy rice.
Description: as §8

The structures appear in SMILES notation.

For the molecule `CCCOCCN(C(=O)CCl)c1c(CC)cccc1CC` [B4), 2-chloro-N-(2,6-diethylphenyl)-N-(2-propoxyethyl)acetamide], the ORYSW % damage in data set [1] (125 g of ai/ha) was 15%; in data set [1] (250 g of ai/ha), 15%; in data set [1] (500 g of ai/ha), 35%. Moreover, the SAGPY % control is 65% in data set [2] (125 g of ai/ha), 70% in [2] (250 g of ai/ha) and 75% in data set [2] (500 g of ai/ha).
Turning to `O=C(O)c1c(Cl)ccc2cc(Cl)cnc12` [B13), 3,7-dichloro-8-quinolincarboxylic acid], the ORYSW % damage in data set [1] (250 g of ai/ha), in [1] (500 g of ai/ha) and in data set [1] (1000 g of ai/ha) was 0% in each case. Moreover, the SAGPY % control in [2] (250 g of ai/ha), in data set [2] (500 g of ai/ha) and in data set [2] (1000 g of ai/ha) was 30% in each case.
Consider `CCN(C(=O)n1nnn(-c2ccccc2Cl)c1=O)C1CCCCC1` [B17), 4-(2-chlorophenyl)-5-oxo-4,5-dihydro-tetrazole-1-carboxylic acid cyclohexyl-ethyl-amide], for which the results for the SAGPY % control in data set [3] (50 g of ai/ha), in data set [3] (100 g of ai/ha) and in data set [3] (200 g of ai/ha) were 0%, 40% and 80%, respectively. In addition, the ORYSW % damage in data set [4] (50 g of ai/ha), in data set [4] (100 g of ai/ha) and in data set [4] (200 g of ai/ha) was 0% in each case.
Take `COP(=S)(OC)SCC(=O)N(c1ccc(Cl)cc1)C(C)C` [B19), S-[2-[(4-chlorophenyl)(1-methylethyl)amino]-2-oxo-ethyl]O,O-dimethylphosphorodithioate]: the ORYSW % damage in [5] (250 g of ai/ha) came to 2%; in data set [5] (500 g of ai/ha), 10%. Also, the ECHCG % control came to 30% in data set [6] (250 g of ai/ha) and 40% in [6] (500 g of ai/ha).
As to `CC(C)N1C(=O)c2ccccc2NS1(=O)=O` [B39), 3-isopropyl-1H-2,1,3-benzothiadiazin-4(3H)-one-2,2-dioxide], the values for the ORYSW % damage in data set [7] (250 g of ai/ha), in data set [7] (400 g of ai/ha) and in [7] (800 g of ai/ha) were 0%, 0% and 3%, respectively. Also, the CYPIR % control in data set [8] (250 g of ai/ha) turned out to be 42%; in data set [8] (400 g of ai/ha) it was 78%; in data set [8] (800 g of ai/ha), 97%.
Take `COc1cc(OC)nc(Oc2cccc(Oc3nc(OC)cc(OC)n3)c2C(=O)O)n1` [B48), sodium 2,6-bis[(4,6-dimethoxypyrimidin-2-yl)oxy]-benzoate]: the ECHCG % control is on record as 15% in data set [9] (19 g of ai/ha), 30% in [9] (38 g of ai/ha) and 40% in data set [9] (75 g of ai/ha). Further, the values for the ORYSW % damage in data set [10] (19 g of ai/ha), in data set [10] (38 g of ai/ha) and in [10] (75 g of ai/ha) were 0%, 0% and 5%, respectively.
On to `C#CCOc1cc(-n2nc(C(C)(C)C)oc2=O)c(Cl)cc1Cl` [B51), 5-tert-butyl-3-[2,4-dichloro-5-(prop-2-ynyloxy)-phenyl]-1,3,4-oxadiazol-2(3H)-one], for which the ECHCG % control in data set [11] (25 g of ai/ha) is 37%; in data set [11] (50 g of ai/ha) it was 63%; in [11] (100 g of ai/ha), 63%; in data set [11] (200 g of ai/ha), 80%.
In the case of `COc1cc(OC)nc(NC(=O)NS(=O)(=O)Cc2ccccc2C(=O)O)n1` [B58), 2-[[[[[(4,6-dimethoxy-2-pyrimidinyl)amino]carbonyl]-amino]sulfonyl]methyl]benzoic acid], the ORYSW % damage in [12] (7.5 g of ai/ha) turned out to be 0%; in [12] (15 g of ai/ha), 0%; in [12] (30 g of ai/ha) it was 2%; in data set [12] (60 g of ai/ha), 5%. The SCIJU % control in data set [13] (7.5 g of ai/ha) came to 35%; in data set [13] (15 g of ai/ha), 40%; in [13] (30 g of ai/ha), 55%; in data set [13] (60 g of ai/ha) it was 60%.
For the molecule `COc1cc(OC)nc(NC(=O)NS(=O)(=O)c2c(C(=O)O)cnn2C)n1` [B59), 5-[[[[(4,6-dimethoxy-2-pyrimidinyl)amino]carbonyl]-amino]sulfonyl]-1-methyl-1H-pyrazol-4-carboxylic acid], the ORYSW % damage in data set [12] (7.5 g of ai/ha) turned out to be 0%; in data set [12] (15 g of ai/ha) it was 0%; in data set [12] (30 g of ai/ha), 2%. The SCIJU % control in data set [13] (7.5 g of ai/ha) amounted to 50%; in data set [13] (15 g of ai/ha), 55%; in data set [13] (30 g of ai/ha), 60%.
As to `COc1cc(OC)nc(NC(=O)NS(=O)(=O)c2c(-c3nnn(C)n3)cnn2C)n1` [B64), azimsulfuron], the ORYSW % damage is listed as 3% in [14] (5 g of ai/ha), 8% in data set [14] (9 g of ai/ha), 10% in data set [14] (18 g of ai/ha) and 10% in [14] (37 g of ai/ha). In addition, the SCIMA % control in data set [15] (5 g of ai/ha) is reported as 78%; in data set [15] (9 g of ai/ha), 80%; in [15] (18 g of ai/ha), 83%; in data set [15] (37 g of ai/ha), 85%.
With `COc1cc(OC)nc(Oc2cccc(Oc3nc(OC)cc(OC)n3)c2C(=O)ON=C(c2ccccc2)c2ccccc2)n1` [B72), pyribenzoxim], the CYPSE % control is listed as 25% in [16] (18.75 g of ai/ha), 35% in data set [16] (37.5 g of ai/ha) and 60% in data set [16] (75 g of ai/ha). The ORYSW % damage in data set [17] (18.75 g of ai/ha) is reported as 3%; in data set [17] (37.5 g of ai/ha), 8%; in [17] (75 g of ai/ha) it was 8%.
Regarding `CC1=C(c2ccccc2)C(=O)N(C(C)(C)c2cc(Cl)cc(Cl)c2)CO1` [B73), oxaziclomefone], the ORYSW % damage in [1] (50 g of ai/ha) was 0%; in data set [1] (100 g of ai/ha), 0%; in [1] (200 g of ai/ha), 5%. Also, the SAGPY % control in data set [2] (50 g of ai/ha) stood at 10%; in [2] (100 g of ai/ha) it was 15%; in data set [2] (200 g of ai/ha) it was 20%.
Turning to `CCOC(=O)C1=NOC(c2ccccc2)(c2ccccc2)C1` [C3-1), ethyl 5,5-diphenyl-2-isoxazoline-3-carboxylate], the CUMDI % control in data set [18] (15 g of ai/ha), in data set [18] (30 g of ai/ha) and in [18] (60 g of ai/ha) was 0% in each case. Moreover, the ORYSW % damage in data set [19] (15 g of ai/ha), in data set [19] (30 g of ai/ha) and in [19] (60 g of ai/ha) was 0% each time.
